Results from US20230293735A1, “OXINE-CONTAINING CELL RADIOLABELLING AGENTS” (priority 2020, published 2023).

Assays:
[1] = Activity recovery from vial (gamma-counting of aliquots); type: physicochemical; conditions: for added ^89Zr activity recoverable: formulation with 5% EtOH
Description: FIG. 9. Recovery of ^89Zr-oxine complexes from the reaction vial over time. The figure compares formulations containing 8-hydroxyquinoline, HEPES and NaOH only (dots), and additional 5% EtOH (squares) or 1 mg/mL polysorbate 80 (diamonds). ^89Zr-oxalate was added to 100 µL of the formulation of the invention in a glass vial and left at room temperature for up to 1 week. 10 µL aliquots were removed from the glass vial immediately after addition (0 min) and after 15 min, 30 min, 1, 2, 24, 48, 72 and 168 h, then gamma-counted at the end of the experiment. The recovered activity is expressed as the activity in the aliquot at the indicated time as a percentage of the activity sampled immediately after addition of ^89Zr to the-formulation of the invention. Mean±SD, N=3.
FIG. 10. Recovery of ^89Zr-oxine complexes from the reaction vial over time as a function of the amount of polysorbate 80. […] 10 µL aliquots were removed from the glass vial immediately after addition (0 min) and after 15 min, 30 min, 1, 2, 24, 48, 72 and 168 h, then gamma-counted at the end of the experiment. The recovered activity is expressed as the activity in the aliquot at the indicated time as a percentage of the activity sampled immediately after addition of ^89Zr to the formulation of the invention. […]
The stability of the compositions described herein can be assessed, for example, in terms of their recovered activity. The recovered activity is expressed as the percentage of activity (i.e. radioactivity, as assessed by gamma-counting) in a sample at the time of measurement, relative to the activity sampled immediately after addition of the radioactive metal containing solution to the oxine formulation described herein. […]
Activity recovery from vial: ^89Zr was added to 100 µL of the formulation. […] The aliquots were gamma-counted on day 7 after addition of ^89Zr. The percentage of activity recovered from the vial was determined as the counts in each sample divided by the counts in the reference sample.

WBC = assay: Viability of radiolabelled cells, Trypan Blue dye exclusion; type: cell-based, human
Description: FIG. 16. WBC radiolabelling with ^89Zr-oxine and ^111In-oxine. Percentage of viable ^89Zr- and ^111n-labelled WBC after 4 h and 24 h, measured using the Trypan blue assay. Mean ± SD of n=6 per group, Student’s two-tailed paired t-test. ns: not significant (p≥0.05).
Viability was assessed by microscopy using the Trypan Blue dye exclusion method. Cell viability after radiolabelling with ^89Zr-oxine was 99.4±0.3% immediately after labelling, 97.0±2.3% after 4 h and 92.6±4.8% after 24 h (FIG. 16).

WBCs = assay: In vitro chemotaxis assay of radiolabelled WBC towards fMLP; type: cell-based, human; conditions: vs ^111In-oxine and unlabelled control cells
Description: FIG. 17. Chemotaxis of radiolabelled WBC. Cells were incubated with ^89Zr-oxine, ^111In-oxine, or vehicle only. The chemotaxis index is the number of cells migrating towards 10 nM fMLP divided by the number of cells migrating towards vehicle, averaged from triplicates for each sample. Each point represents one donor. Bars represent the mean ± SD of n = 9, 10 and 10 individual samples. p≥0.05.
The functionality of WBCs radiolabelled as in Example 8 was tested using an in vitro chemotaxis assay, where the number of WBCs migrating in response to the neutrophil chemoattractant N-formyl-Met-Leu-Phe (fMLP) was measured.
After radiolabelling, red blood cells (RBCs) were removed from the cell pellets hypotonic lysis. Cells were resuspended in 4.5 mL cold H2O for 30 s, after which isotonicity was restored by addition of 0.5 mL 10x PBS. Lysed RBC were removed by centrifugation and the remaining WBC were resuspended in assay medium at 3.5×10^6 cells/mL. […] The top wells were emptied, the plate was centrifuged at 150 g for 5 min to detach the cells from the membrane and the cells in the bottom wells were counted using a haemocytometer. The chemotaxis index (CI) was calculated by dividing the number of WBC in the wells containing fMLP by the number of WBC in the wells containing medium only.

WBC populations = assay: Relative activity per cell in FACS-sorted WBC populations, gamma-counted; type: cell-based, human; conditions: flow-assisted cell sorting
Description: FIG. 18. Relative activity per cell of ^89Zr in WBC populations after labelling of mixed WBC with ^89Zr-oxine. Radiolabelled WBC were sorted by FACS and gamma-counted. Each point represents cells from an individual donor.
To determine whether certain subtypes of WBC had preferential uptake of ^89Zr-oxine, radiolabelled WBC were stained with fluorescent monoclonal antibodies, automatically sorted and gamma-counted. ^89Zr-radiolabelled WBC were stained (15 min at 4° C.) with a combination of CD45-APC-Vio770 (#130-110-773), CD3-PE (REA613, #130-113-701), CD14-APC (#130-110-578), CD19-PE-Vio770 (REA675, #130-114-173) and CD16-FITC (REA423, #130-113-954) antibodies to sort samples into neutrophils, eosinophils, monocytes, T cells and B cells, or CD45-APC-Vio770, […] (REA175, #130-117-800) and CD41a-PE (REA386, #130-121-429) to sort red blood cells and platelets. Compensation settings were adjusted using beads (anti-REA MACS® Comp, #130-104-693). Samples were analysed and sorted on a FACSMelody instrument (BD Biosciences) equipped with blue (488 nm), yellow-green ([…]) and red (633 nm) lasers. For each cell type, a fixed number of events was collected, and the fractions were gamma-counted to determine the amount of activity per cell.

Extracellular vesicles = assay: Radiolabelling efficiency of extracellular vesicles; conditions: EVs from B16-F10.GFP, MDA-MB-231.CD63-GFP, PANC1, 4T1 and 2D/3D MSC cultures
Description: FIG. 23. Use of the kit formulation to radiolabel extracellular vesicles (EVs) for imaging purposes.
Extracellular vesicles are isolated by any suitable method (e.g. by density gradient centrifugation). Extracellular vesicles (e.g. 1×10^10 to 1×10^11 vesicles) in 160 µL PBS were incubated with 20 µL ^89Zr-oxine or unchelated ^89Zr for 20 min at 37° C. with frequent shaking, followed by addition of 100 µL 1% deferoxamine in PBS to trap any unbound ^89Zr. Radiolabelled EVs were purified from unchelated radiotracer by size-exclusion chromatography (SEC) using cross-linked agarose resin (e.g. Sepharose CL-2B, GE Healthcare) in plastic columns. The reaction mixture was loaded onto the column followed by 200 µL PBS and eluted with 700-800 µL PBS. Radioactivity of the eluate and the column was measured using gamma counting to calculate labelling efficiency. The labelling efficiency of EVs obtained from B16-F10.GFP, MDA-MB-231.CD63-GFP, PANC1 and 4T1 cell lines and from 2D and 3D cultures of mesenchymal stem cells (MSC) B with ^89Zr-oxine ranged from 5.4 ± 3.2% for 2D-culture derived MSC-EVs to 27.6 ± 6.5% for 4T1 EVs (FIG. 23).

eosinophils = conditions: ref. [31]; cited from earlier work
Human WBCs = assay: Radiolabel retention in radiolabelled WBC in autologous cell free plasma; type: cell-based; conditions: p>0.05, n=10
Description: Human WBCs from 10 healthy donors were radiolabelled with ^89Zr-oxine and ^111In-oxine as described in Example 8 and an intra-individual comparison of labelling with ^89Zr-oxine and ^111In-oxine was performed. Labelling efficiency was determined as described in Example 7. For radiolabel retention studies, radiolabelled WBC were suspended in autologous CFP (cell free plasma), in triplicate in a 24-well plate and incubated at 37° C. Cells were collected after 4 h or 24 h, diluted with PBS, centrifuged at 200 g for 10 min, and supernatants and pellets were measured in a dose calibrator to determine retention using the same formula as for labelling efficiency. The labelling efficiency of WBCs with ^89Zr-oxine was 48.7±6.3%, vs 89.1±9.5 (p<0.0001, n=10) for ^111In-oxine (FIG. 14). Cellular retention of ^89Zr was 91.4±1.4% after 4 h incubation in autologous CFP and 86.6±2.9% after 24 h (FIG. 15). […] The labelling of WBC with ^89Zr-oxine was reliable, consistently achieving 45-50% labelling efficiency with 160-480 million cells.

SMILES: c1cnc2c([O][89Zr]([O]c3cccc4cccnc34)([O]c3cccc4cccnc34)[O]c3cccc4cccnc34)cccc2c1 [^89Zr-oxine]
- added activity recoverable from the vial ([1]; 1 M HEPES buffer (pH 7.9), no surfactant or organic solvent, glass vessel, 15 min after addition of ^89Zr): 46%
- added ^89Zr activity recoverable ([1]; after 1 h): 46%
- added ^89Zr activity recoverable ([1]; after 24 h): less than 6%
- cell viability after radiolabelling (WBC; after 4 h): 97.0±2.3%
- cell viability after radiolabelling (WBC; after 24 h): 92.6±4.8%
- cell viability after radiolabelling (WBC; immediately after labelling): 99.4±0.3%
- chemotactic properties of labelled WBC (WBCs): retained their chemotactic properties
- preferential uptake by leukocyte populations (WBC populations): no preferential uptake by any specific leukocyte population
- uptake in RBCs and platelets (WBC populations): significant uptake
- labelling efficiency of EVs compared to unchelated ^89Zr (Extracellular vesicles): higher labelling efficiency

SMILES: C/C(=N\[O-])[C@@H](C)[N-]CC(C)(C)C[N-][C@H](C)/C(C)=N/O.[O]=[99Tc+3] (racemic) [^99mTc-HMPAO]
- preferential accumulation in leucocyte subtype (eosinophils): accumulated preferentially in eosinophils

SMILES: c1cnc2c([O][111In]([O]c3cccc4cccnc34)[O]c3cccc4cccnc34)cccc2c1 [^111In-oxine, reference compound]
- radiolabelling agent retention compared with ^89Zr-oxine (Human WBCs): no significant differences
- viability compared with ^89Zr-oxine (WBC; p>0.05, n=6-10): no significant differences
